Here are results for two molecules from US9415103B2, “Combination therapy to prevent DCIS formation and progression to breast cancer” (Yeda Research and Development Co. Ltd., priority 2011, dated 2016).

In one test the test system is MCF10A-HER2 spheroids. The test is described as follows: Morphogenesis assay in Matrigel: luminal filling and cleaved Caspase-3 staining by confocal microscopy. Format: cell-based, human. Particulars: spheroids grown 4 days, then 10058-F4 1 μM, FIG. 4G; for luminal filling: LY-294002 2 μM or U0126 1 μM for up to 4 additional days, day 8; for Caspase-3 activation: LY-294002 2 μM or U0126 1 μM, imaged on day 6.

The subject of test [1] is Notch pathway genes in MCF10A-HER2 spheroids. Particulars: U0126 1 μM, up to five days, lumen-filled spheroids; FIG. 2C.

With `CCc1ccc(/C=C2/SC(=S)NC2=O)cc1` [10058-F4], in the test on MCF10A-HER2 spheroids, the luminal filling result is listed as “significant inhibition” and the Caspase-3 activation entry was “markedly enhanced”.

As for `N#CC(=C(/N)Sc1ccccc1N)/C(C#N)=C(\N)Sc1ccccc1N` [U0126], in the test with MCF10A-HER2 spheroids, the luminal filling result is given as “significant inhibition” and the Caspase-3 activation entry is “markedly enhanced”. The “transcriptional induction of the Notch pathway (qRT-PCR)” value in test [1] is recorded as “contributes to the transcriptional induction of the Notch pathway”.
